The target of one experiment is T1, human PRMT1 (Homo sapiens, UniProt Q99873).
T1 construct: GST-tagged PRMT1; made in house; host or cells: High Five insect cells (baculovirus, pFastBacI)
Description: PRMT1 biochemical assay (3H-SAM Flashplate, peptide substrate). The conditions noted are these: read-out: PRMT1_ IC50. The source says: S-adenosylmethionine (SAM), S-adenosylhomocysteine (SAH), bicine, Tween20, dimethylsulfoxide (DMSO), bovine skin gelatin (BSG), and Tris(2-carboxyethyl)phosphine hydrochloride solution (TCEP) were purchased from Sigma-Aldrich at the highest level of purity possible. ^3H-SAM was purchase from American Radiolabeled Chemicals with a specific activity of 80 Ci/mmol. 384-well streptavidin Flashplates were purchased from PerkinElmer.
Peptide representative of human histone H4 residues 36-50 was synthesized with an N-terminal linker-affinity tag motif and a C-terminal amide cap by 21st Century Biochemicals. The peptide was purified by high-performance liquid chromatography (HPLC) to greater than 95% purity and confirmed by liquid chromatography mass spectrometry (LC-MS). The sequence was Biot-Ahx-[…]-amide (SEQ ID NO.: 1).
Full-length human PRMT1 isoform 1 (NM_001536.5) transcript clone was amplified from an HEK 293 cDNA library, incorporating flanking 5′ sequence encoding a FLAG tag ([…]) (SEQ ID NO.: 2) fused directly to Met 1 of PRMT1. The amplified gene was subcloned into pFastBacI (Life Technologies) modified to encode an N-terminal GST tag and a TEV cleavage sequence ([…] […] […] […] QGGNS)(SEQ ID NO.: 3) fused to Asp of the Flag tag of PRMT1.
Recombinant baculovirus were generated according to Bac-to-Bac kit instructions (Life Technologies). Protein over-expression was accomplished by infecting exponentially growing High Five insect cell culture at 1.5×10^6 cell/ml with 1:100 ratio of virus. Infections were carried out at 27° C. for 48 hours, harvested by centrifugation, and stored at −80° C. for purification.
GST-tagged PRMT1 was eluted with 50 mM Tris, 2 mM glutathione, pH 7.8, dialysed in buffer A and concentrated to 1 mg/mL. The purity of recovered protein was 73%. Reference: Wasilko, D. J. and S. E. Lee: “TIPS: titerless infected-cells preservation and scale-up” Bioprocess J., 5 (2006), pp. 29-32.
General Procedure for PRMT1 Enzyme Assays on Peptide Substrates.
The assays were all performed in a buffer consisting of 20 mM Bicine (pH=7.6), 1 mM TCEP, 0.005% BSG, and 0.002% Tween 20, prepared on the day of use. Compounds in 100% DMSO (1 ul) were spotted into a polypropylene 384-well V-bottom plates (Greiner) using a Platemate Plus outfitted with a 384-channel head (Thermo Scientific). DMSO (1 ul) was added to Columns 11, 12, 23, 24, rows A-H for the maximum signal control and 1 ul of SAH, a known product and inhibitor of PRMT1, was added to columns 11, 12, 23, 24, rows I-P for the minimum signal control. A cocktail (40 ul) containing the PRMT1 enzyme was added by Multidrop Combi (Thermo-Fisher). The compounds were allowed to incubate with PRMT1 for 30 min at room temperature, then a cocktail (10 ul) containing SAM and peptide was added to initiate the reaction (final volume=51 ul). The final concentrations of the components were as follows: PRMT1 was 0.5 nM, ^3H-SAM was 200 nM, non-radiolabeled SAM was 1.5 uM, peptide was 20 nM, SAH in the minimum signal control wells was 1 mM, and the DMSO concentration was 2%. The assays were stopped by the addition of non-radiolabeled SAM (10 ul) to a final concentration of 300 uM, which dilutes the ^3H-SAM to a level where its incorporation into the peptide substrate is no longer detectable. 50 ul of the reaction in the 384-well polypropylene plate was then transferred to a 384-well Flashplate and the biotinylated peptides were allowed to bind to the streptavidin surface for at least 1 hour before being washed once with 0.1% Tween20 in a Biotek ELx405 plate washer. The plates were then read in a PerkinElmer TopCount plate reader to measure the quantity of ^3H-labeled peptide bound to the Flashplate surface, measured as disintegrations per minute (dpm) or alternatively, referred to as counts per minute (cpm).
Where dpm=disintegrations per minute, cmpd=signal in assay well, and min and max are the respective minimum and maximum signal controls. […]

The next experiment has as its target PRMT5 (Homo sapiens, UniProt O14744). Description: PRMT5 IC50 (Table 2; no method described). Type of experiment: biochemical. The conditions noted are these: read-out: PRMT5_ IC50.
Experiment [1] concerns asymmetric di-methyl PABP1 in RKO cells. Description: In Cell Western (ICW) for asymmetric di-methyl PABP1 and DNA content in RKO cells. Type of experiment: cell-based. The conditions noted are these: Homo sapiens, RKO, In Cell Western. An outline of the steps:
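RKO cells treated with compound for 48 h at 37 °C, then fixed, methanol-permeabilized and stained for asymmetric di-methyl PABP1 (800 nm) with DRAQ5 DNA stain (700 nm). Signal ratio normalized to DMSO and 20 μM reference-compound controls. IC50 from nine 3-fold dilutions in triplicate.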

Molecules are shown by their SMILES.

The IC50 is the point on the concentration scale where inhibition reaches its midpoint.

Chain of PRMT5 (O14744 whole entry, species assumed): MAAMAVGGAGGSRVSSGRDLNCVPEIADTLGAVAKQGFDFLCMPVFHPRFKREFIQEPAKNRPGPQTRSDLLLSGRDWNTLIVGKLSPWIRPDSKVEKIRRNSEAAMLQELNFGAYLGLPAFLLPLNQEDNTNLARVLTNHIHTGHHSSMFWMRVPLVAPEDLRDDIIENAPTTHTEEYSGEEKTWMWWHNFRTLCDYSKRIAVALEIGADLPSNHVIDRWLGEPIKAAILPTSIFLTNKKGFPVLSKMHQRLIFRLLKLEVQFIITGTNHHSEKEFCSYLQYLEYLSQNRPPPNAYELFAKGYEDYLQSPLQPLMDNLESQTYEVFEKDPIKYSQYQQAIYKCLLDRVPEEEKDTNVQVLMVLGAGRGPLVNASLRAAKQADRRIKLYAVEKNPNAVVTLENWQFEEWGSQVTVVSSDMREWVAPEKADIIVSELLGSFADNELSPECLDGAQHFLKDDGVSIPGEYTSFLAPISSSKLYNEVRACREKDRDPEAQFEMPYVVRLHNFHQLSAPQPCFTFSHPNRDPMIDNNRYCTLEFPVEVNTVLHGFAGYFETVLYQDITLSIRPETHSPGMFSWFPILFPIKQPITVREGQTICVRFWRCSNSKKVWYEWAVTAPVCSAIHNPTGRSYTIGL
Chain of PRMT5 (Q9BQA1 whole entry partner, species assumed): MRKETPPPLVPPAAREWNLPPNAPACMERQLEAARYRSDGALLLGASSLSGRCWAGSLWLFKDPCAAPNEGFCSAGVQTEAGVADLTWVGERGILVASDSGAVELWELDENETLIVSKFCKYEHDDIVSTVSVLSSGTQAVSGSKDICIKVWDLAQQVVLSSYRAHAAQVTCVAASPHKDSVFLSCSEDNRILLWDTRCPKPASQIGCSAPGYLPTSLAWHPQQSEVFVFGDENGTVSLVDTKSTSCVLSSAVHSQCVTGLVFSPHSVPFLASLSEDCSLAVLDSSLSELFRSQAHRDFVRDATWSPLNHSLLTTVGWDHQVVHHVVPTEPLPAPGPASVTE
T1 sequence (Q99873 with tags, fused parts or gaps): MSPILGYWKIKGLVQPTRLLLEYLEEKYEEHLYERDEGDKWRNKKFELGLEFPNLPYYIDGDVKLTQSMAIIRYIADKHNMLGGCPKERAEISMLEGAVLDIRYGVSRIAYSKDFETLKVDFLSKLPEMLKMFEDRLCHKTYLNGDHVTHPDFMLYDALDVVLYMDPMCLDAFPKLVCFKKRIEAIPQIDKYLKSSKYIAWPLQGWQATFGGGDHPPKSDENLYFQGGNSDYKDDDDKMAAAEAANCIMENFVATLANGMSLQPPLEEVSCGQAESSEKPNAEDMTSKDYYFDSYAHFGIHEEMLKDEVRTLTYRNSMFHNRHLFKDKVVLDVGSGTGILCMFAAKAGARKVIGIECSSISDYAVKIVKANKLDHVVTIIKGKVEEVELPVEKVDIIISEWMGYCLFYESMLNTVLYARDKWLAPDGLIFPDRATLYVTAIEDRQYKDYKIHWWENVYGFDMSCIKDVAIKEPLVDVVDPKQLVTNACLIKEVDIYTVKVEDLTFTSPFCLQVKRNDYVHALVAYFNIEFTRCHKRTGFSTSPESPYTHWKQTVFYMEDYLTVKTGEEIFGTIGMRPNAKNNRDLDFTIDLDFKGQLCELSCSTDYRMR

For `COc1ccc(-n2cnc3ccc(-c4ccc(CNCCN)cc4)cc32)cc1` [Compound 89], the IC50 at human PRMT1 was found to be 414 nM; at PRMT5 it was 417 nM.
As for `Cc1cc(C)c(CNC(=O)c2ccnc(-c3cccc(CN(C)CCN)c3)c2)c(=O)[nH]1` [Compound 376], the values for the IC50 at human PRMT1 and at PRMT5 were 202 nM and 24400 nM, respectively.
With `Cc1[nH]c2ncc(-c3ccc(CNCCN)cc3)cc2c1C` [Compound 140], the IC50 at human PRMT1 was determined as 1090 nM; in experiment [1], 12.5 µM; on PRMT5, 128 nM.
Take `CNCCNCc1ccc(-c2cncc(C(=O)NCc3c(C)cc(C)[nH]c3=O)c2)cc1` [Compound 377]: the IC50 on human PRMT1 stood at 204 nM; at PRMT5, 36500 nM.
The corresponding values for `NCCNCc1ccc(-c2ccc3ncn(C4CCCC4)c3c2)cc1` [Compound 146] are 1330 nM and 173 nM.
On to `NCCNCc1ccc(-c2ccc3[nH]c(=O)n(-c4ccccc4)c3c2)cc1` [Compound 91], for which the values for the IC50 on human PRMT1 and at PRMT5 were 431 nM and 502 nM, respectively.
As to `Cn1cnc2ccc(-c3ccc(CNCCN)cc3)cc21` [Compound 165], the IC50 on human PRMT1 was 4530 nM; at PRMT5, 250 nM.
In the case of `COc1cccc(Cn2cnc3ccc(-c4ccc(CNCCN)cc4)cc32)c1` [Compound 90], the IC50 at human PRMT1 worked out at 430 nM; on PRMT5, 125 nM.
`NCCNCc1ccc(-c2ccc3ncn(-c4ccccc4)c3c2)cc1` [Compound 113]: the IC50 at human PRMT1 was 604 nM; at PRMT5, 366 nM.
Take `N#Cc1ccc(-n2cnc3ccc(-c4ccc(CNCCN)cc4)cc32)cc1` [Compound 149]: the IC50 at human PRMT1 came to 1530 nM; at PRMT5, 238 nM.
Take `CN(C)C(=O)c1ccc(Cn2cnc3ccc(-c4ccc(CNCCN)cc4)cc32)cc1` [Compound 147]: the IC50 on human PRMT1 turned out to be 1330 nM; on PRMT5, 129 nM.
With `NCCNCc1ccc(-c2ccc3nc(-c4ccc5cccnc5c4)[nH]c3c2)cc1` [Compound 77], the IC50 at human PRMT1 came to 317 nM; at PRMT5, 258 nM.
For `Cc1cccc(Cn2cnc3ccc(-c4ccc(CNCCN)cc4)cc32)c1` [Compound 127], the IC50 at human PRMT1 is 802 nM; on PRMT5, 74.5 nM.
The like results for `Cc1cc2cc(-c3ccc(CNCCN)cc3)cnc2[nH]1` [Compound 152] were, in that order, 1690 nM and 316 nM.

Source of the values: patent US20170280720A1, “ARGININE […] INHIBITORS AND USES THEREOF” (EPIZYME, INC., priority 2014, published 2017).
